± gives the expanded uncertainty stated by the source.
Experiments:
[1] = for viscosity / thermal conductivity / mass density: 101.33 kPa, Liquid; for viscosity: Cone and plate viscometry; for thermal conductivity: Parallel plate method; for Glass transition temperature: DTA; for mass density: Vibrating tube method
[2] = molar heat capacity at constant pressure; conditions: 101.33 kPa, Liquid, Small sample (50 mg) DSC

CCOP(=O)([O-])OCC.CCn1cc[n+](C)c1 [1-ethyl-3-methylimidazolium diethyl phosphate]
Conditions	molar heat capacity at constant pressure [J/K/mol]	thermal conductivity [W/m/K]	viscosity [mPa·s]
[1], 283 K	–	–	1280 ± 150
[1], 293 K	–	–	580 ± 65
[1], 298 K	–	–	410 ± 44
[1], 300 K	–	0.19 ± 0.02	–
[1], 303 K	–	–	300 ± 30
[1], 313 K	–	–	168 ± 17
[1], 323 K	–	–	101 ± 10
[1], 333 K	–	–	66 ± 7
[1], 343 K	–	–	45 ± 5
[1], 375 K	–	0.19 ± 0.02	–
[2], 298 K	459.81 ± 47	–	–
[2], 303 K	465.1 ± 47	–	–
[2], 308 K	467.74 ± 47	–	–
[2], 313 K	470.38 ± 48	–	–
[2], 318 K	475.67 ± 48	–	–
[2], 323 K	478.31 ± 48	–	–
[2], 328 K	480.95 ± 49	–	–
[2], 333 K	486.24 ± 49	–	–
[2], 338 K	488.88 ± 49	–	–
[2], 343 K	494.16 ± 50	–	–

Conditions	Glass transition temperature [°C]
[1]	-66 ± 2

CCn1cc[n+](C)c1.O=C([O-])C(F)(F)F [1-ethyl-3-methylimidazolium trifluoroacetate]
[1]
Conditions	thermal conductivity [W/m/K]
300 K	0.17 ± 0.01
375 K	0.17 ± 0.01

CCn1cc[n+](C)c1.CS(=O)(=O)[O-] [1-ethyl-3-methylimidazolium methanesulfonate]
[1]
Conditions	thermal conductivity [W/m/K]	viscosity [mPa·s]
283 K	–	450 ± 49
293 K	–	210 ± 22
298 K	–	155 ± 16
300 K	0.21 ± 0.02	–
303 K	–	117 ± 12
313 K	–	70 ± 7
323 K	–	45 ± 5
333 K	–	31 ± 3
343 K	–	23 ± 2
375 K	0.21 ± 0.02	–

Conditions	Glass transition temperature [°C]
[1]	-62 ± 2

CCn1cc[n+](C)c1.N#C[S-] [1-ethyl-3-methylimidazolium thiocyanate]
[1]
Conditions	thermal conductivity [W/m/K]
300 K	0.21 ± 0.02
375 K	0.21 ± 0.02

Conditions	Glass transition temperature [°C]
[1]	-94 ± 2

CCn1cc[n+](C)c1.O=S(=O)([O-])C(F)(F)F [1-ethyl-3-methylimidazolium trifluoromethanesulfonate]
[1]
Conditions	thermal conductivity [W/m/K]
300 K	0.16 ± 0.01
375 K	0.16 ± 0.01

CCCCCC[n+]1ccn(C)c1.O=S(=O)([N-]S(=O)(=O)C(F)(F)F)C(F)(F)F
[1]
Conditions	mass density [kg/m3]	thermal conductivity [W/m/K]
283 K	1385.63 ± 4.2	–
293 K	1376.5 ± 4.2	–
300 K	–	0.12 ± 0.01
303 K	1367.38 ± 4.1	–
313 K	1358.3 ± 4.1	–
323 K	1349.27 ± 4.1	–
333 K	1340.34 ± 4	–
343 K	1331.41 ± 4	–
353 K	1322.54 ± 4	–
363 K	1313.73 ± 4	–
375 K	–	0.12 ± 0.01

— the NIST ThermoML archive (doi:10.1021/je400858t)
